Measurements taken from ChEMBL document CHEMBL3507680, “University of Dundee, Gates Library screen for HepG2 cell viability”.

Assay: Human HepG2 cell viability assay in 384 well format
Type: toxicity, cell-based
Set-up: dose 125 nL, time 70.5 hour; concentration not given beside the values
Conditions: HepG2 cells, read-out: Inhibition

Compound	cytotoxicity at 70.5 h [%]
NC(=O)c1cc(C2CCCN(C(=O)CCc3ccccn3)C2)n[nH]1 (centres undefined)	-3.73
CC(C)NC(=O)COc1nc(C(C)(C)C)no1	-6.41
Cc1nn(C)cc1-c1ccnc(N2CCCN(CC(C)C)CC2)n1	-6.83
Cc1cc(C(=O)NCc2cccnc2OC(C)C)no1	-31.2
CCn1ccnc1C1CCN(C(=O)Nc2ccc(OC)cc2)CC1	29.5
Cc1ccc(C(=O)N2CCC3(CCC(=O)N(CC(N)=O)C3)CC2)c(O)c1	-9.11
Cc1cccc(C2CCCN2Cc2nc(N)nc(N(C)C)n2)c1C (centres undefined)	-9.17
CC(C)(CNc1ccc(C#N)c(C(F)(F)F)c1)C(N)=O	2.06
O=C(NCCN1CCOCC1)C(OC1CCCC1)c1ccccc1 (centres undefined)	-3.19
COC(=O)CN1CCC(C(=O)c2cc(F)ccc2F)CC1	-3.39
COC1CCN(S(=O)(=O)N2CC[C@@](O)(C3CCC3)[C@H](C)C2)CC1	-11.9
CO[C@H]1CN(C(=O)c2ccc(C)o2)[C@@H]2CCCO[C@H]12	-0.145
Cc1ncncc1C(=O)N1C[C@H]2CC[C@@H]1CN(C(=O)c1ccncc1)C2	-0.209
Cc1nc(-c2ccccc2)n(CC(=O)NC2CCCCC2)n1	-14.1
CCS(=O)(=O)N1CC[C@@H]2[C@H](CC1)N(Cc1cccnc1)CCS2(=O)=O	-4.2
O=C(CCC1CCCC1)N1CCC(c2ncc3c(n2)CCNC3)CC1	11.5
NC(=O)C(NC(=O)c1ccc(NC2CC2)nc1)c1ccccc1 (centres undefined)	-5.49
Cc1ncsc1CCN(C)Cc1cc2n(n1)CCN(Cc1ncc[nH]1)C2	47.1
Cc1noc(C)c1C(C)NC(=O)N1CCCN(C(=O)c2ccsc2)CC1 (centres undefined)	-13.8
COCc1nn(C(C)C)c2c1CCN(Cc1ccoc1)C2	-6.52
CC(=O)N1CCCC(c2ncncc2-c2ccncc2)C1 (centres undefined)	-7.71
CCc1cc(O)nc(C2CCCN(Cc3ccncc3)C2)n1 (centres undefined)	-1.03

Compound	cytotoxicity at 70.5 h [%]
CC(Cc1ccco1)NC(=O)CCn1cccn1 (centres undefined)	-14.7
CN(Cc1nccn1CC(F)(F)F)C(=O)c1cccc(C#N)c1	-7.89
CN1CCOC(CN(C(=O)CC2CCCC2)c2nccs2)C1 (centres undefined)	4.76
CC(C)CNC(=O)[C@H]1CCS(=O)(=O)[C@@H]2CN(c3ncccn3)C[C@H]12	-10.6
Cc1cc(CN(C2CC2)C(C)C(C)C)on1 (centres undefined)	1.68
CC(O)c1cn(C2CCN(C(=O)C3(C)CCCCC3)CC2)nn1 (centres undefined)	14.9
Cc1nnc(SCCC(=O)N(C)Cc2ccc(Cl)s2)[nH]1	-14.2
Cc1nc(C)c(C)c(N2CCC(O)(c3ccc(F)cc3)CC2)n1	-6.02
CN(Cc1cnn(C)c1)S(=O)(=O)N1CCCCC1	-5.36
CCc1ccc(S(=O)(=O)N2CC[C@@](O)(CCOC)[C@H](C)C2)cc1	-10.2
Cc1nc(N2CCOCC2)sc1C(=O)NCC(C)(C)N1CCCCC1	-2
c1coc(CN2CCCn3c(nnc3Cn3cccc3)C2)c1	-3.91
O=C(C1CN(c2ncc(F)cn2)CC12CCOCC2)N1CC=CC1 (centres undefined)	-5.64
Cc1ccccc1N1CCN(C(=O)Cc2ccc3c(c2)OCO3)CC1=O	-2.79
CN1CCC(O)(CNC(=O)c2cc(COc3cccc(F)c3)[nH]n2)CC1	-6.87
O=S(=O)(NCCn1cc(C2CCOC2)nn1)c1ccc(Cl)cc1 (centres undefined)	17.5
Cc1n[nH]c(C)c1CNC(=O)N1CCCC(Cc2nccn2C)C1 (centres undefined)	0.74
NS(=O)(=O)CCNC(=O)c1ccc(OCc2ccccc2)nc1	20.5
O=C(COC[C@H]1CC[C@H]2[C@H](CCN2c2ccccn2)O1)N1CCCC1	-111
CC1CN(Cc2ccccc2)CCCN1CCNS(C)(=O)=O (centres undefined)	-0.345
CCOCCNC(=O)c1cccnc1Sc1cc(OC)ccc1OC	15.5
CCSc1ncc(CN(Cc2cnn(C)c2)CC(C)C)cn1	-4.66
